Test results published in ChEMBL document CHEMBL5365510, “Discovery of Novel, Thienopyridine-Based Tyrosine Kinase Inhibitors Targeting Tumorigenic RON Splice Variants” (ACS Med Chem Lett, 2023).
Activity calls are given as the source filed them. The rule behind the calls is not given here.

Key:
[1] = test system: HT-29; test: Antiproliferative activity against human HT-29 cells harbouring wild-type KRAS and RON delta 160 assessed as cell death rate at 5 uM measured after 48 hrs by trypan blue exclusion assay relative to control; format: functional
[2] = Metabolic stability in human liver microsomes assessed as parent compound remaining after 30 mins in presence of NADPH by LC/MS/MS analysis; format: ADME, Microsome; conditions: read-out: Stability
[3] = test system: PANC-1; test: Antiproliferative activity against human PANC-1 cells harbouring KRAS G12D mutant and RON delta 155 assessed as cell growth inhibition measured after 72 hrs by MTS assay; format: functional
[4] = test system: KM12C; test: Antitumor activity against human KM12-C cells harbouring RON delta 160 xenografted in BALB/c mouse assessed as tumor growth inhibition at 10 mg/kg, po qd measured after 14 days; format: functional; conditions: 336 h, time 14 day, read-out: TGI
[5] = Volume of distribution at steady state in Sprague-Dawley rat at 1 mg/kg, iv measured after 24 hrs by LC/MS/MS analysis; format: ADME, organism-based; conditions: in vivo, read-out: Vdss
[6] = test system: NIH3T3; test: Inhibition of RON splicing variant 165 (unknown origin) transfected in […] cells assessed as reduction in RON phosphorylation at 100 uM incubated for 2 hrs by Western blotting analysis; format: cell-based
[7] = Antitumor activity against patient derived Colorectal cancer cell harbouring wild-type KRAS and RON delta 160 xenografted in BALB/c mouse assessed as tumor growth inhibition at 10 mg/kg, po qd measured after 28 days; format: functional; conditions: Homo sapiens, 672 h, time 28 day, read-out: TGI
[8] = Antiproliferative activity against human SNU-1047 cells harbouring wild-type KRAS and RON delta 155 assessed as cell growth inhibition measured after 72 hrs by MTS assay; format: functional
[9] = AUC(0 to infinity) in Sprague-Dawley rat at 5 mg/kg, po measured after 24 hrs by LC/MS/MS analysis; format: ADME, organism-based; design: dose 5 mg/kg, time 24 hrs, route po; conditions: in vivo, 24 h
[10] = test system: SW480; test: Antiproliferative activity against human SW480 cells harbouring KRAS G12V mutant and RON delta 155 assessed as cell growth inhibition measured after 72 hrs by MTS assay; format: functional
[11] = Oral bioavailability in Sprague-Dawley rat at 5 mg/kg measured after 24 hrs by LC/MS/MS analysis; format: ADME, organism-based; conditions: in vivo, po, 5 mg/kg, 24 h
[12] = test system: SW-620; test: Antiproliferative activity against human SW620 cells harbouring KRAS G12 V mutant and RON delta 155 assessed as cell growth inhibition measured after 72 hrs by MTS assay; format: functional
[13] = Clearance in Sprague-Dawley rat at 1 mg/kg, iv measured after 24 hrs by LC/MS/MS analysis; format: ADME, organism-based; conditions: in vivo, iv, 1 mg/kg, 24 h
[14] = Half life in Sprague-Dawley rat at 5 mg/kg, po measured after 24 hrs by LC/MS/MS analysis; format: ADME, organism-based; conditions: in vivo
[15] = Antiproliferative activity against human SW480E cells harbouring KRAS G12V mutant and RON delta 160 assessed as cell growth inhibition measured after 72 hrs by MTS assay; format: functional
[16] = Cmax in Sprague-Dawley rat at 5 mg/kg, po measured after 24 hrs by LC/MS/MS analysis; format: ADME, organism-based; design: dose 5 mg/kg, time 24 hrs, route po; conditions: in vivo
[17] = test system: KM12C; test: Antiproliferative activity against human KM12-C cells harbouring wild-type KRAS and RON delta 160 assessed as cell growth inhibition measured after 72 hrs by MTS assay; format: functional
[18] = test system: KM12C; test: Antitumor activity against human KM12-C cells harbouring RON delta 160 xenografted in BALB/c mouse assessed as tumor growth inhibition at 1 mg/kg, po qd measured after 14 days; format: functional; conditions: 336 h, time 14 day, read-out: TGI
[19] = test system: CAPAN-1; test: Antiproliferative activity against human CAPAN-1 cells harbouring KRAS G12V mutant and RON delta 155 assessed as cell growth inhibition measured after 72 hrs by MTS assay; format: functional
[20] = test system: SW-620; test: Antitumor activity against human SW620 cells harbouring RON delta 155 xenografted in BALB/c mouse assessed as tumor growth inhibition at 30 mg/kg, po qd measured after 28 days; format: functional; conditions: SW-620, 672 h, time 28 day, read-out: TGI
[21] = AUC(0 to infinity) in Sprague-Dawley rat at 1 mg/kg, iv measured after 24 hrs by LC/MS/MS analysis; format: ADME, organism-based; design: time 24 hrs, dose 1 mg/kg, route iv; conditions: in vivo, 24 h
[22] = test system: ASPC1; test: Antiproliferative activity against human ASPC1 cells harbouring KRAS G12D mutant and RON delta 165 assessed as cell growth inhibition measured after 72 hrs by MTS assay; format: functional
[23] = test system: PANC-03-27; test: Antiproliferative activity against human Panc 03.27 cells harbouring KRAS G12V mutant and RON delta 155 assessed as cell growth inhibition measured after 72 hrs by MTS assay; format: functional
[24] = test system: KM12C; test: Antitumor activity against human KM12-C cells harbouring RON delta 160 xenografted in BALB/c mouse assessed as tumor growth inhibition at 30 mg/kg, po qd measured after 14 days; format: functional; conditions: 336 h, time 14 day, read-out: TGI
[25] = test system: NIH3T3; test: Inhibition of RON splicing variant 155 (unknown origin) transfected in […] cells assessed as reduction in RON phosphorylation at 100 uM incubated for 2 hrs by Western blotting analysis; format: cell-based
[26] = test system: MIA PaCa-2; test: Antiproliferative activity against human MIA PaCa-2 cells harbouring KRAS G12C mutant and RON delta 160 assessed as cell growth inhibition measured after 72 hrs by MTS assay; format: functional
[27] = test system: NIH3T3; test: Inhibition of RON splicing variant 160 (unknown origin) transfected in […] cells assessed as reduction in RON phosphorylation at 100 uM incubated for 2 hrs by Western blotting analysis; format: cell-based
[28] = test system: LS-411N; test: Antiproliferative activity against human LS-411N cells harbouring wild-type KRAS and RON delta 155 assessed as cell growth inhibition measured after 72 hrs by MTS assay; format: functional
[29] = test system: KM12C; test: Antiproliferative activity against human KM12-C cells harbouring wild-type KRAS and RON delta 160 assessed as cell death rate at 5 uM measured after 48 hrs by trypan blue exclusion assay relative to control; format: functional
[30] = test system: SW1417; test: Antiproliferative activity against human SW1417 cells harbouring wild-type KRAS and RON delta 155 assessed as cell growth inhibition measured after 72 hrs by MTS assay; format: functional
[31] = test system: HCT-15; test: Antiproliferative activity against human HCT-15 cells harbouring KRAS G13D mutant and RON delta 160 assessed as cell growth inhibition measured after 72 hrs by MTS assay; format: functional
[32] = test system: T84; test: Antitumor activity against human T84 cells harbouring RON delta 165 xenografted in BALB/c mouse assessed as tumor growth inhibition at 30 mg/kg, po qd measured after 34 days; format: functional; conditions: T84, 816 h, time 34 day, read-out: TGI
[33] = Half life in Sprague-Dawley rat at 1 mg/kg, iv measured after 24 hrs by LC/MS/MS analysis; format: ADME, organism-based; conditions: in vivo
[34] = Tmax in Sprague-Dawley rat at 5 mg/kg, po measured after 24 hrs by LC/MS/MS analysis; format: ADME, organism-based; conditions: in vivo
[35] = test system: KM12C; test: Antitumor activity against human KM12-C cells harbouring RON delta 160 xenografted in BALB/c mouse assessed as tumor growth inhibition at 3 mg/kg, po qd measured after 14 days; format: functional; conditions: 336 h, time 14 day, read-out: TGI
[36] = test system: HT-29; test: Antiproliferative activity against human HT-29 cells harbouring wild-type KRAS and RON delta 160 assessed as cell growth inhibition measured after 72 hrs by MTS assay; format: functional

SMILES | GI50 [3] | inhibition in vivo at 10 mg/kg [7] | GI50 [8] | GI50 [10] | GI50 [12] | GI50 [15] | GI50 [17] | GI50 [19] | inhibition in vivo at 30 mg/kg [20] | GI50 [22] | GI50 [23] | GI50 [26] | GI50 [28] | GI50 [30] | GI50 [31] | inhibition in vivo at 30 mg/kg [32] | further results
CCOc1ccn(-c2ccc(F)cc2)c(=O)c1C(=O)Nc1ccc(Oc2ccnc3cc(-c4ccc(CN5CCOCC5)cn4)sc23)c(F)c1 | 2400 nM | 74.9% | 550 nM | 340 nM | 320 nM | 450 nM | 7 nM | 550 nM | 79.8% | 460 nM | 7340 nM | 630 nM | 1010 nM | 320 nM | 290 nM | 88.3% | Activity [1]: 51.3%; remaining at 0.5 h [2]: 69%; inhibition in vivo at 10 mg/kg [4]: 73%; Vd [5]: 2.25 L/kg; inhibition [6]: Active; AUC [9]: 12600 ng·h/mL; F [11]: 87.01%; CL [13]: 11.5 mL/min/kg; half-life [14]: 3.1 h; Cmax [16]: 2020 ng/mL; inhibition in vivo at 1 mg/kg [18]: 29.4%; AUC [21]: 7240 ng·h/mL; inhibition in vivo at 30 mg/kg [24]: 85.2%; inhibition [25]: Active; inhibition [27]: Active; Activity [29]: 41.9%; half-life [33]: 3.28 h; Tmax [34]: 1 h; inhibition in vivo at 3 mg/kg [35]: 35%
CCOc1ccn(-c2ccc(F)cc2)c(=O)c1C(=O)Nc1ccc(Oc2ccnc(N)c2Cl)c(F)c1 [BMS-777607] | > 10000 nM | 1.5% | > 10000 nM | > 10000 nM | 860 nM | > 10000 nM | 133 nM | 9020 nM | 41.6% | > 10000 nM | > 10000 nM | > 10000 nM | > 10000 nM | > 10000 nM | 5000 nM | 46.9% | GI50 [36]: > 10000 nM
